Measured values from patent US20230201216A1, “AZELASTINE AS ANTIVIRAL TREATMENT” (priority 2020, published 2023).
Structures can show the parent of a compound that is named as a salt. Where two headings read alike, the source gives them in different places.

Tests used:
SARS-CoV-2 [1] = assay type: cell-based; details: for cytopathic effect (CPE) score: Vero E6, MOI 0.1, 48 hours post infection; for protective effect against SARS-CoV-2 cytopathic effect: Vero E6
SARS-CoV-2 [2] = assay type: cell-based; details: for viral particle/μL, co-administration / viral particle/μL, post-infection administration: Vero E6, 48 h post infection, median; for reduction of viral particle numbers (up to): Vero E6
SARS-CoV-2 [3] = details: without virus infection; MucilAir
SARS-CoV-2 B.1.351 = assay type: cell-based
RANTES = assay type: cell-based, human
SARS-CoV-2 [4] = assay type: cell-based
influenza H1N1 = assay type: cell-based; details: 24 h post-infection, compared to buffer treated cells
[5] = test system: MucilAir human nasal epithelial cells
IL-8 = assay type: cell-based, human
RSV Long strain = assay: RSV infection of HEp-2 cells, spot count and viral genome copy number by RT-PCR; assay type: cell-based, Respiratory Syncytial Virus; details: for RSV infection of cells by spot count, compared to vehicle (DMSO) treated controls: all 3 settings, HEp-2
SARS-CoV-2 [6] = details: cells expressing TMPRSS2, including Calu-3; ref. Hoffmann et al.; cited from earlier work

## Maraviroc
SARS-CoV-2 [1]; 3.125 μM
  cytopathic effect (CPE) score: 4
SARS-CoV-2 [1]; 6.25 μM
  cytopathic effect (CPE) score: 4
SARS-CoV-2 [1]; 12.5 μM
  cytopathic effect (CPE) score: 3
SARS-CoV-2 [1]; 25 μM
  cytopathic effect (CPE) score: 3
SARS-CoV-2 [1]; 50 μM
  cytopathic effect (CPE) score: 3
SARS-CoV-2 [1]; higher concentrations (12.5 to 50 μM)
  protective effect against SARS-CoV-2 cytopathic effect: only marginal protective effect
SARS-CoV-2 [1]; lower concentrations
  protective effect against SARS-CoV-2 cytopathic effect: not effective at all

## CN1CCCC(n2nc(Cc3ccc(Cl)cc3)c3ccccc3c2=O)CC1 (centres unmarked) [Azelastine, 4-[(4-chlorophenyl)methyl]-2-(1-methylazepan-4-yl)phthalazin-1-one]
SARS-CoV-2 [2]; 3.125 μM
  viral particle/μL, co-administration: 98.4 viral particle/μL
  viral particle/μL, post-infection administration: 138 viral particle/μL
SARS-CoV-2 [2]; 6.25 μM
  viral particle/μL, co-administration: 15.45 viral particle/μL
  viral particle/μL, post-infection administration: 68.4 viral particle/μL
SARS-CoV-2 [2]; 12.5 μM
  viral particle/μL, co-administration: 12.25 viral particle/μL
  viral particle/μL, post-infection administration: 52 viral particle/μL
SARS-CoV-2 [2]; 25 μM
  viral particle/μL, co-administration: 0.2 viral particle/μL
  viral particle/μL, post-infection administration: 6.865 viral particle/μL
SARS-CoV-2 [2]; co-administration (simulating prevention)
  reduction of viral particle numbers (up to): > 99%
SARS-CoV-2 [2]; post-infection administration (post-exposure or therapy)
  reduction of viral particle numbers (up to): > 97%
SARS-CoV-2 [3]
  tissue morphology of treated versus control cells: No difference in tissue morphology
SARS-CoV-2 B.1.351
  inhibition (low viral numbers): over 90%

## CN1CCCC(n2nc(Cc3ccc(Cl)cc3)c3ccccc3c2=O)CC1 (centres unmarked) [Azelastine-HCl]
SARS-CoV-2 [1]; 3.125 μM
  cytopathic effect (CPE) score: 2
SARS-CoV-2 [1]; 6.25 μM
  cytopathic effect (CPE) score: 2
RANTES
  RANTES levels compared to buffer control: significantly reduced
SARS-CoV-2 [4]
  reduction of viral particle numbers: over 90%
SARS-CoV-2 [4]; 50 μM, Calu-3, MOI 0.01, 48 h
  reduction of viral particle numbers (up to): > 99%
Influenza H1N1; 0.01% azelastine-HCl
  decrease in the viral copy: ~0.9 log
  reduction of viral genome copy: 87.4%
Influenza H1N1; 0.02% azelastine-HCl
  decrease in the viral copy: ~1.9 log
  reduction of viral genome copy: 98.74%
[5]; 0.02% concentration, infected cells
  cytotoxicity: no cytotoxicity
[5]; 0.02% concentration, non-infected cells
  cytotoxicity: 6.5%
[5]; lower (0.01%) concentration
  cytotoxicity: no cytotoxicity
IL-8
  IL-8 levels compared to buffer control: significantly reduced
RSV Long strain; 3.2 μM
  RSV infection of cells by spot count, compared to vehicle (DMSO) treated controls: ~50%
RSV Long strain; 6.4 μM
  RSV infection of cells by spot count, compared to vehicle (DMSO) treated controls: ~50%
RSV Long strain; 6.4 μM, co-administration, experiment #1
  Viral genome copy relative to DMSO: 46.65%
RSV Long strain; 6.4 μM, co-administration, experiment #2
  Viral genome copy relative to DMSO: 53.22%
RSV Long strain; 6.4 μM, preventive, experiment #1
  Viral genome copy relative to DMSO: 65.52%
RSV Long strain; 6.4 μM, preventive, experiment #2
  Viral genome copy relative to DMSO: 54.71%
RSV Long strain; 6.4 μM, therapeutic, experiment #1
  Viral genome copy relative to DMSO: 47.96%
RSV Long strain; 6.4 μM, therapeutic, experiment #2
  Viral genome copy relative to DMSO: 51.05%

## CCN(CCO)CCCC(C)Nc1ccnc2cc(Cl)ccc12 (centres unmarked) [Hydroxychloroquine sulfate]
SARS-CoV-2 [6]
  potency on cells expressing the surface protease TMPRSS2: significantly loses its potency
